Assay results: ChEMBL document CHEMBL3872259, “Synthesis, characterization, and in vitro SAR evaluation of N,N'-bis(arylmethyl)-C2-alkyl substituted imidazolium salts” (Bioorg Med Chem Lett, 2017)

Tests used:
[1] = Antiproliferative activity against human NCI-H460 cells assessed as cell growth at 10 uM measured after 48 hrs by sulforhodamine B assay relative to control; assay type: functional; details: NCI-H460, 48 h, read-out: Activity
[2] = Antiproliferative activity against human A549 cells assessed as reduction in cell viability measured after 72 hrs by MTT assay; assay type: functional, cell-based; details: A549, 72 h
[3] = Antiproliferative activity against human A549/ATCC cells assessed as cell growth at 10 uM measured after 48 hrs by sulforhodamine B assay relative to control; assay type: functional; details: A549, 48 h, read-out: Activity
[4] = Antiproliferative activity against human NCI-H460 cells assessed as reduction in cell viability measured after 72 hrs by MTT assay; assay type: functional, cell-based; details: NCI-H460, 72 h; for CC50: read-out: LC50 (the source's name)
[5] = Antiproliferative activity against human HOP92 cells assessed as cell growth at 10 uM measured after 48 hrs by sulforhodamine B assay relative to control; assay type: functional; details: HOP-92, 48 h, read-out: Activity
[6] = Antiproliferative activity against human NCI-H1975 cells assessed as reduction in cell viability measured after 72 hrs by MTT assay; assay type: functional, cell-based; details: NCI-H1975, 72 h
[7] = Growth inhibition of human NCI-H226 cells measured after 48 hrs by sulforhodamine B assay; assay type: functional; details: NCI-H226, 48 h; for CC50: read-out: LC50 (the source's name)
[8] = Antiproliferative activity against human NCI-H522 cells assessed as cell growth at 10 uM measured after 48 hrs by sulforhodamine B assay relative to control; assay type: functional; details: NCI-H522, 48 h, read-out: Activity
[9] = Antiproliferative activity against human NCI-H322M cells assessed as cell growth at 10 uM measured after 48 hrs by sulforhodamine B assay relative to control; assay type: functional; details: read-out: Activity
[10] = Antiproliferative activity against human HCC827 cells assessed as reduction in cell viability measured after 72 hrs by MTT assay; assay type: functional, cell-based; details: HCC827, 72 h
[11] = Antiproliferative activity against human NCI-H23 cells assessed as cell growth at 10 uM measured after 48 hrs by sulforhodamine B assay relative to control; assay type: functional; details: NCI-H23, 48 h, read-out: Activity
[12] = Growth inhibition of human NCI-H522 cells measured after 48 hrs by sulforhodamine B assay; assay type: functional; details: NCI-H522, 48 h
[13] = Antiproliferative activity against human EKVX cells assessed as cell growth at 10 uM measured after 48 hrs by sulforhodamine B assay relative to control; assay type: functional; details: read-out: Activity
[14] = Growth inhibition of human HOP62 cells measured after 48 hrs by sulforhodamine B assay; assay type: functional; details: HOP-62, 48 h; for CC50: read-out: LC50 (the source's name)
[15] = Antiproliferative activity against human NCI-H226 cells assessed as cell growth at 10 uM measured after 48 hrs by sulforhodamine B assay relative to control; assay type: functional; details: NCI-H226, 48 h, read-out: Activity
[16] = Growth inhibition of human NCI-H23 cells measured after 48 hrs by sulforhodamine B assay; assay type: functional; details: NCI-H23, 48 h; for CC50: read-out: LC50 (the source's name)
[17] = Antiproliferative activity against human HOP62 cells assessed as cell growth at 10 uM measured after 48 hrs by sulforhodamine B assay relative to control; assay type: functional; details: HOP-62, 48 h, read-out: Activity
[18] = Growth inhibition of human HOP92 cells measured after 48 hrs by sulforhodamine B assay; assay type: functional; details: HOP-92, 48 h; for CC50: read-out: LC50 (the source's name)
[19] = Growth inhibition of human EKVX cells measured after 48 hrs by sulforhodamine B assay; assay type: functional; details: for CC50: read-out: LC50 (the source's name)
[20] = Growth inhibition of human NCI-H322M cells measured after 48 hrs by sulforhodamine B assay; assay type: functional; details: for CC50: read-out: LC50 (the source's name)
[21] = Aqueous solubility of the compound; assay type: physicochemical; details: buffer

c1ccc2cc(Cn3cc[n+](Cc4ccc5ccccc5c4)c3)ccc2c1
growth at 10 µM [1]: 39.6%
GI50 [2]: 7.97 µM
LC50 [2]: 55.3 µM
TGI [2]: 22.9 µM
growth at 10 µM [3]: 67.6%
GI50 [4]: 1.27 µM
IC50 [4]: 4 µM
TGI [4]: 10.4 µM
CC50 [4]: 42 µM
growth at 10 µM [5]: -13.3%
IC50 [6]: 6 µM
GI50 [7]: 1.72 µM
TGI [7]: 14.3 µM
CC50 [7]: 71.9 µM
growth at 10 µM [8]: -11.7%
growth at 10 µM [9]: 62.8%
IC50 [10]: 9 µM
growth at 10 µM [11]: 41.6%
GI50 [12]: 0.393 µM
LC50 (50% lethal concentration) [12]: 26.8 µM
TGI [12]: 3.11 µM
growth at 10 µM [13]: 51.6%
GI50 [14]: 3.26 µM
TGI [14]: 17 µM
CC50 [14]: 45.9 µM
growth at 10 µM [15]: 52.1%
GI50 [16]: 0.901 µM
TGI [16]: 10.1 µM
CC50 [16]: 39.4 µM
growth at 10 µM [17]: 42.1%
GI50 [18]: 0.16 µM
TGI [18]: 1.39 µM
CC50 [18]: 15.2 µM
GI50 [19]: 2.51 µM
TGI [19]: 15.5 µM
CC50 [19]: 4.75 µM
GI50 [20]: 8.4 µM
TGI [20]: 21.3 µM
CC50 [20]: 47.3 µM

[Br-].c1ccc(-c2n(Cc3ccc4ccccc4c3)cc[n+]2Cc2ccc3ccccc3c2)cc1
growth at 10 µM [1]: -78.4%
GI50 [2]: 1.78 µM
IC50 [2]: 4 µM
TGI [2]: 3.52 µM
growth at 10 µM [3]: 12.5%
GI50 [4]: 1.37 µM
IC50 [4]: 3 µM
TGI [4]: 2.87 µM
growth at 10 µM [5]: -69.7%
IC50 [6]: 2 µM
GI50 [7]: 1.26 µM
TGI [7]: 2.97 µM
growth at 10 µM [9]: 8.84%
IC50 [10]: 2 µM
growth at 10 µM [11]: -38.7%
GI50 [12]: 1.07 µM
TGI [12]: 2.58 µM
growth at 10 µM [13]: 3.5%
GI50 [14]: 1.46 µM
TGI [14]: 3.23 µM
growth at 10 µM [15]: -9.03%
GI50 [16]: 0.775 µM
TGI [16]: 2.35 µM
CC50 [16]: 6.14 µM
solubility [21]: < 0.5 mM
growth at 10 µM [17]: -44.8%
GI50 [18]: 0.602 µM
TGI [18]: 2.28 µM
GI50 [19]: 1.58 µM
TGI [19]: 3.43 µM
GI50 [20]: 1.42 µM
TGI [20]: 2.82 µM
CC50 [20]: 5.61 µM

CCc1n(Cc2ccc3ccccc3n2)cc[n+]1Cc1ccc2ccccc2c1.[Br-]
growth at 10 µM [1]: 11.1%
GI50 [2]: 0.997 µM
IC50 [2]: 3 µM
LC50 [2]: 46.1 µM
TGI [2]: 14.1 µM
growth at 10 µM [3]: 37.3%
GI50 [4]: 0.456 µM
IC50 [4]: 2 µM
TGI [4]: 10.8 µM
CC50 [4]: 49.5 µM
growth at 10 µM [5]: -20.1%
IC50 [6]: < 1 µM
GI50 [7]: 1.06 µM
TGI [7]: 4.87 µM
CC50 [7]: 39.4 µM
growth at 10 µM [8]: -27.4%
growth at 10 µM [9]: 34.8%
IC50 [10]: 5 µM
growth at 10 µM [11]: -4.2%
GI50 [12]: 0.275 µM
LC50 (50% lethal concentration) [12]: 13.3 µM
TGI [12]: 0.986 µM
growth at 10 µM [13]: 15.9%
GI50 [14]: 1.4 µM
TGI [14]: 7.02 µM
CC50 [14]: 32.1 µM
growth at 10 µM [15]: 19.6%
GI50 [16]: 0.311 µM
TGI [16]: 3.23 µM
CC50 [16]: 37 µM
solubility [21]: 5 mM
growth at 10 µM [17]: 1.85%
GI50 [18]: 0.184 µM
TGI [18]: 0.671 µM
CC50 [18]: 7.04 µM
GI50 [19]: 0.442 µM
TGI [19]: 7.34 µM
CC50 [19]: 38.7 µM
GI50 [20]: 2.86 µM
TGI [20]: 13.8 µM
CC50 [20]: 38.1 µM

CCCCc1n(Cc2ccc3ccccc3n2)cc[n+]1Cc1ccc2ccccc2c1.[Cl-]
IC50 [2]: 3 µM
IC50 [4]: 3 µM
IC50 [6]: 2 µM
IC50 [10]: 6 µM
solubility [21]: > 10 mM

Cc1n(Cc2ccc3ccccc3n2)cc[n+]1Cc1ccc2ccccc2n1.[Cl-]
growth at 10 µM [1]: 95%
IC50 [2]: 15 µM
growth at 10 µM [3]: 88.6%
IC50 [4]: 8 µM
growth at 10 µM [5]: 74.5%
IC50 [6]: 2 µM
growth at 10 µM [8]: 35.9%
growth at 10 µM [9]: 103%
IC50 [10]: 13 µM
growth at 10 µM [11]: 69.8%
growth at 10 µM [13]: 80.7%
growth at 10 µM [15]: 88.1%
solubility [21]: > 80 mM
growth at 10 µM [17]: 90.5%

Cc1n(Cc2ccc3ccccc3n2)cc[n+]1Cc1ccc2ccccc2c1.[Br-]
growth at 10 µM [1]: 10.2%
GI50 [2]: 1.31 µM
IC50 [2]: 3 µM
LC50 [2]: 43.5 µM
TGI [2]: 13.1 µM
growth at 10 µM [3]: 33.5%
GI50 [4]: 0.959 µM
IC50 [4]: 2 µM
TGI [4]: 14.4 µM
CC50 [4]: 47 µM
growth at 10 µM [5]: -6.1%
IC50 [6]: < 1 µM
GI50 [7]: 1.86 µM
TGI [7]: 10.9 µM
CC50 [7]: 47.5 µM
growth at 10 µM [8]: 3.95%
growth at 10 µM [9]: 26%
IC50 [10]: 9 µM
growth at 10 µM [11]: 2.01%
GI50 [12]: 0.271 µM
LC50 (50% lethal concentration) [12]: 12.4 µM
TGI [12]: 1.46 µM
growth at 10 µM [13]: 48.3%
GI50 [14]: 1.53 µM
TGI [14]: 6.66 µM
CC50 [14]: 34.5 µM
growth at 10 µM [15]: 12.7%
GI50 [16]: 1.83 µM
TGI [16]: 13.4 µM
CC50 [16]: 62 µM
solubility [21]: < 5 mM
growth at 10 µM [17]: 13.3%
GI50 [18]: 0.518 µM
TGI [18]: 3.81 µM
CC50 [18]: 27 µM
GI50 [19]: 3.93 µM
TGI [19]: 27.6 µM
CC50 [19]: > 100 µM
GI50 [20]: 3.27 µM
TGI [20]: 14.7 µM
CC50 [20]: 40.4 µM

CCc1n(Cc2ccc3ccccc3c2)cc[n+]1Cc1ccc2ccccc2n1.[Cl-]
IC50 [6]: < 1 µM
IC50 [10]: 2 µM
solubility [21]: > 10 mM

[Cl-].c1ccc(-c2n(Cc3ccc4ccccc4n3)cc[n+]2Cc2ccc3ccccc3c2)cc1
IC50 [2]: 4 µM
IC50 [4]: 3 µM
IC50 [6]: 2 µM
IC50 [10]: 6 µM
solubility [21]: > 10 mM

[Cl-].c1ccc(-c2n(Cc3ccc4ccccc4n3)cc[n+]2Cc2ccc3ccccc3n2)cc1
IC50 [2]: 14 µM
IC50 [4]: 8 µM
IC50 [6]: 2 µM
IC50 [10]: 8 µM
solubility [21]: > 80 mM

OCc1n(Cc2ccc3ccccc3c2)cc[n+]1Cc1ccc2ccccc2c1.[Br-]
growth at 10 µM [1]: 53.1%
IC50 [2]: > 30 µM
growth at 10 µM [3]: 68.6%
IC50 [4]: 14 µM
growth at 10 µM [5]: -2.81%
IC50 [6]: 7 µM
growth at 10 µM [9]: 78.9%
IC50 [10]: 12 µM
growth at 10 µM [11]: 67.7%
growth at 10 µM [13]: 83.3%
growth at 10 µM [15]: 61.6%
solubility [21]: < 0.5 mM
growth at 10 µM [17]: 75%

CCCc1n(Cc2ccc3ccccc3n2)cc[n+]1Cc1ccc2ccccc2c1.[Cl-]
growth at 10 µM [1]: 7.73%
GI50 [2]: 1.88 µM
IC50 [2]: 3 µM
LC50 [2]: 37.3 µM
TGI [2]: 11.8 µM
growth at 10 µM [3]: 39.1%
GI50 [4]: 0.658 µM
IC50 [4]: 3 µM
TGI [4]: 10.6 µM
CC50 [4]: 46.5 µM
growth at 10 µM [5]: -18.6%
IC50 [6]: 2 µM
GI50 [7]: 1.2 µM
TGI [7]: 7.6 µM
CC50 [7]: 39.7 µM
growth at 10 µM [8]: -0.78%
growth at 10 µM [9]: 25.7%
IC50 [10]: 6 µM
growth at 10 µM [11]: -11.6%
GI50 [12]: 0.249 µM
LC50 (50% lethal concentration) [12]: 4.59 µM
TGI [12]: 1.13 µM
growth at 10 µM [13]: 41.6%
GI50 [14]: 1.63 µM
TGI [14]: 5.38 µM
CC50 [14]: 26.1 µM
growth at 10 µM [15]: 12.3%
GI50 [16]: 0.479 µM
TGI [16]: 10.6 µM
CC50 [16]: 52 µM
solubility [21]: > 10 mM
growth at 10 µM [17]: 8.38%
GI50 [18]: 0.188 µM
TGI [18]: 1.12 µM
CC50 [18]: 9.13 µM
GI50 [19]: 2.16 µM
TGI [19]: 14.9 µM
CC50 [19]: 52.7 µM
GI50 [20]: 3.46 µM
TGI [20]: 15 µM
CC50 [20]: 39.6 µM
